As a reminder, the pIC50 is the IC50 on a negative log10 scale, so that one unit is a factor of ten.

pIC50: −log10 of the molar value.

The target in the experiment is Protein Tat (Human immunodeficiency virus type 1 group M subtype B (isolate HXB2)) (UniProt P04608). Description: inhibitors of Tat binding to TAR RNA, dose response, counter-screen for Vif-APOBEC3G degradation inhibitor project, biochemical, fluorescence polarization, FAM-labeled TAR RNA (AID 1117361). A general note: A counterscreen serves to expose hits that act by an unwanted route or on another target.
Protein Tat (Human immunodeficiency virus type 1 group M subtype B (isolate HXB2)), sequence (P04608 whole entry, looked up): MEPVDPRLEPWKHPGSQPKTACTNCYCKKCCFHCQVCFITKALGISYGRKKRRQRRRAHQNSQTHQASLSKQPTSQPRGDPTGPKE
With `O=C(O)/C=C/C(=O)Nc1cccnc1`, the negative-log IC50 (pIC50) is 5.70. As for `O=C(Cc1cccs1)N/N=C/C=C/c1ccco1`, the pIC50 was 5.09. In the case of `CCc1cc2cc(C)cc(C)c2nc1SCC(=O)N1CCN(C(=O)c2ccco2)CC1`, the pIC50 was 4.41. Turning to `C=C(C)C(=O)Nc1cccc(C2=NOC3(C2)C[C@H](C(N)=O)N(C(=O)COc2ccc(Cl)cc2)C3)c1` (stereo partly specified), the pIC50 is 4.76. Turning to `CN(C)c1ncc(C2=C(Cl)C(=O)C(N3CCCC3)=C(Cl)C2=O)s1`, the pIC50 was 5.81.

`O=C1NC(=O)N(c2ccc(Cl)cc2)C(=O)/C1=C\c1ccc(Sc2nc3ccccc3[nH]2)o1`: the pIC50 is 5.47. Regarding `NCCc1c[nH]c2ccccc12`, the pIC50 is 4.93. Regarding `Cc1ccc(C)c2[nH]c(=O)c(CN(Cc3ccc4c(c3)OCO4)Cc3nnnn3Cc3ccco3)cc12`, the negative-log IC50 (pIC50) was 4.40. For `O=C(/C=C/c1ccco1)NC(=S)Nc1ccccc1N1CCOCC1` the value was 4.59; for `CCOC(=O)C1CCN(C(=O)COc2ccc(S(=O)(=O)NC(C)C)cc2)CC1`, 4.09; for `C=CCNc1nc2ccccc2nc1NS(=O)(=O)c1cccs1`, 4.35. As for `Cc1cc(C(=O)CCl)c(C)n1-c1c(C)n(C)n(-c2ccccc2)c1=O`, the pIC50 was 4.69. For `O=C(/C=C/c1ccco1)N(c1ccccn1)c1ccccn1`, the pIC50 was 5.10. On to `CN(C)c1ccc(N=C/C=C2/N(C)c3ccccc3C2(C)C)cc1`, for which the pIC50 was 4.19.

`CC(=O)OC1COC(n2ccc3ccccc32)C(OC(C)=O)C1OC(C)=O` (stereo unspecified): the pIC50 is 4.05. As to `CCOc1cc(N2CCOCC2)c(OCC)cc1NC(C)C(=O)N1CCN(CC)CC1` (stereo unspecified), the pIC50 is 4.10. For `Cc1ccc[n+](-c2[nH]c(=O)sc2/C=N/NC(=O)c2ccccc2[O-])c1`, the pIC50 is 4.66. Under `C(=C\c1ccco1)/c1ccc2ccccc2n1` stands 5.03; under `O=C(O)C1Nc2ccc(Br)cc2C2C=CCC12` (stereo unspecified), 5.43. Regarding `COC(=O)C1=C(C)N(Cc2ccccc2)C(=O)/C1=C\c1ccco1`, the pIC50 was 4.10. Regarding `N#C/C(=C\c1ccc([N+](=O)[O-])o1)C(=O)Nc1ccc(F)cc1`, the pIC50 is 4.25.

On to `CCOC(=O)c1ccc(CC(=O)c2ccc(O)c(O)c2O)o1`, for which the pIC50 was 4.13. In the case of `NS(=O)(=O)c1ccc(N/N=C/c2ccc(O)c(O)c2O)c([N+](=O)[O-])c1`, the negative-log IC50 (pIC50) was 5.13. `CCOC(=O)c1c(C)oc2c1c(C=NCc1ccccn1)c(O)c1ccccc12`: the pIC50 was 5.38. In the case of `C=CCOC(=O)C1=C(C)NC(SCC(=O)Nc2ccccc2)=C(C#N)C1c1ccco1` (stereo unspecified), the negative logarithm of the IC50 (pIC50) was 4.24. For the compound `O=C(O)C1OC(Oc2c(-c3ccc(O)c(O)c3)oc3cc(O)cc(O)c3c2=O)C(O)C(O)C1O` (stereo unspecified), the pIC50 was 5.67. For `CC(=O)c1ccc2c(c1)C1C=CCC1C(C(=O)O)N2` (stereo unspecified), the negative logarithm of the IC50 (pIC50) was 5.61. As for `C=CCN1C(=O)/C(=C\c2ccco2)C(C(=O)OC)=C1C`, the pIC50 was 4.34. With `CCCCn1c(=NC(=O)c2cccnc2)c(C#N)cc2c(=O)n3cccc(C)c3nc21`, the negative logarithm of the IC50 (pIC50) was 5.32. `Cc1cccc(N(C(=O)Cn2nnc3ccccc32)C(C(=O)NCc2ccco2)c2ccncc2)c1C` (stereo unspecified): the pIC50 is 4.56. Regarding `Cc1sc2ncnc(SCc3ccco3)c2c1C`, the pIC50 is 4.75.

Take `CCOc1ccccc1C(O)C1=CC(=O)c2ccccc2C1=O` (stereo unspecified): the negative logarithm of the IC50 (pIC50) is 4.11.

`Cc1[nH]c2c(Cl)cccc2c(=O)c1CN1CCCC1`: the negative-log IC50 (pIC50) was 4.11. With `COc1ccc2c(c1OC)C(=O)OC2CC(=O)c1ccc(O)c(O)c1` (stereo unspecified), the pIC50 was 4.09. For `CCOc1cccc(OCC)c2c(C)[n+](CC3CCCO3)c(C)c1-2` (stereo unspecified) the value was 5.38; for `COc1cc(OC)c2c(c1O)OC(c1ccccc1)CC2=O` (stereo unspecified), 4.18; for `COc1ccc(Nc2ccc(OC)cc2)cc1`, 4.64. Under `Cc1cc(C(=O)NCCCN2CCCC2=O)no1` stands 4.62; under `Cc1ccc(C2SCC(=O)N2Cc2cn3ccsc3n2)o1` (stereo unspecified), 4.16. Under `COc1cccc(=O)c2c(C)n(-c3ccc(C(=O)O)cc3)c(C)c12` stands 5.51; under `O=C1C(=Cc2ccco2)CCCC1=Cc1ccco1`, 4.19.

Consider `Cc1cnnc2ccc3c(no[n+]3[O-])c12`, for which the pIC50 is 4.44. Take `CCc1cc(=O)n2[nH]c(C)c(-c3ccccc3OC)c2n1`: the pIC50 is 4.90. For `c1coc(-c2nc3ccccc3nc2-c2ccco2)c1` the value was 5.19; for `O=C1CC(Nc2ccc(N3CCOCC3)cc2)C(=O)N1C1CCCCC1` (stereo unspecified), 4.94. On to `O=C(Nc1ccc(F)cc1)C(c1ccccc1)N1CCN(S(=O)(=O)c2ccc3ccccc3c2)CC1` (stereo unspecified), for which the pIC50 was 5.91.

As to `Cc1cc(C)c([N+](=O)[O-])cc1-c1ccc(/C=N/c2c(-c3ccco3)nc3ccccn23)o1`, the pIC50 is 4.24. Turning to `Nc1ccc2c(O)cc(S(=O)(=O)O)cc2c1`, the pIC50 is 4.32.

For `Cc1cc(C)nc(N/N=C/C2=C(N3CCOCC3)C(=C\c3ccc(Cl)cc3)/CC2)n1`, the pIC50 is 4.14. Regarding `Cc1cc(C(=O)CSc2nnc(-c3ccco3)o2)c(C)n1Cc1ccco1`, the pIC50 was 5.36. Regarding `O=[N+]([O-])c1c(NCCCO)cc(SCc2ccco2)c2nonc12`, the pIC50 was 4.78. With `CC(C)N1CCC2(CC1)C(C#N)=C(N)NC(S)=C2C#N`, the pIC50 is 4.32. For `O=C(O)C1Nc2c(Cl)cc(Cl)c(Cl)c2C2C=CCC12` (stereo unspecified) the value was 4.34. Under `O=C(C1CCCO1)N1CCC2(CC1)OCCO2` (stereo unspecified) stands 5.26; under `Cc1ccccc1Cc1c(C)nc2c(C(=O)NCc3ccc4c(c3)OCO4)cnn2c1C`, 5.98; under `Cc1ccc(NC(=O)CN(C)C(=O)c2cc(-c3ccco3)nc3ccccc23)cc1`, 4.16.

Regarding `O=C(NCc1ccccn1)c1ccc2nc(-c3ccco3)c(-c3ccco3)nc2c1`, the pIC50 is 5.32. As to `Cc1ccc(Cn2c(=S)[nH]c3ccc(N4CCOCC4)cc3c2=O)o1`, the pIC50 was 5.40.

Consider `CC1=CC2(O)OCCN(CCO)C2=CC1=O` (stereo unspecified), for which the pIC50 was 4.46. Turning to `Cc1nn(-c2ccccn2)c2c1C(=O)C(Br)CC2` (stereo unspecified), the pIC50 is 5.05.

As for `O=C1NC(c2cccc(Br)c2)=N/C1=C\c1ccco1`, the pIC50 is 5.04.

Turning to `CCC(c1nnnn1C(C)(C)CC)N(CCCO)Cc1cc2cc(C)cc(C)c2[nH]c1=O` (stereo unspecified), the pIC50 is 5.73.

With `O=C(COC(=O)c1cc(-c2ccco2)nc2ccccc12)NCc1ccc2c(c1)OCO2`, the pIC50 is 4.74. Consider `CCOC(=O)c1ccc(NS(=O)(=O)c2ccc3c(c2)oc(=O)n3C)cc1`, for which the negative logarithm of the IC50 (pIC50) is 6.00. Regarding `COc1ccc(-c2cc(-c3ccco3)[nH]c(=O)c2C#N)cc1`, the pIC50 is 4.82. As to `O=C(CN1C(=O)NC2(CCCCCCC2)C1=O)NCc1cccs1`, the pIC50 is 4.44. For `O=C(NN1C(=O)/C(=C/C=C/c2ccco2)SC1=S)c1ccncc1` the value was 5.57. For the compound `C=C(C)C(=O)Nc1cccc(C2=NOC3(C2)C[C@@H](C(N)=O)N(C(=O)CC(c2ccccc2)c2ccccc2)C3)c1` (stereo partly specified), the pIC50 is 4.53. On to `CC1(OC(=O)CCc2ccccc2)C(=O)C=C2C=C(c3ccsc3)OC=C2C1=O` (stereo unspecified), for which the pIC50 was 4.18. Turning to `Cc1cc([N+](=O)[O-])cc2c1NC(c1ccccn1)C1CC=CC21` (stereo unspecified), the pIC50 was 4.31. For `O=C1/C(=C/c2ccco2)Oc2c1ccc(O)c2CN1CCCCC1`, the negative-log IC50 (pIC50) is 5.37. For the compound `O=C1CC(Nc2ccc(N3CCOCC3)cc2)C(=O)N1Cc1ccccc1` (stereo unspecified), the pIC50 was 4.81. In the case of `O=C1CCCC/C1=C/Nc1ccc2c(c1)OCO2`, the pIC50 was 4.38. On to `COC(=O)COc1ccc(S(=O)(=O)Nc2cc(OC)ccc2OC)cc1`, for which the pIC50 is 4.55. `CCCN1C(=O)S/C(=C\c2ccc(N3CCOCC3)cc2C)C1=O`: the pIC50 was 5.72. In the case of `COC(=O)CCC(=O)OC1(C)C(=O)C=C2C=C3CCCN3C=C2C1=O` (stereo unspecified), the pIC50 was 4.95.

Turning to `Cc1onc(-c2c(F)cccc2Cl)c1C(=O)Nc1nnc(C2CC2)s1`, the pIC50 is 4.22. As to `O=C(O)c1[nH]c2ccc(Cl)cc2c1CC(=O)N1CCN(C(=O)c2ccco2)CC1`, the pIC50 was 4.16. As for `COC(=O)c1ccccc1NC(=O)CCS(=O)(=O)c1ccc(Br)cc1`, the pIC50 was 4.74. As to `CC(C)Cn1c(SCC(=O)NC(=O)Nc2ccc3c(c2)OCCO3)nc2ccccc2c1=O`, the pIC50 was 5.79.

Regarding `Cc1c(Br)c(O)c(Br)c2sc(=O)oc12`, the pIC50 was 4.60.

Take `O=C(O)COc1ccc2c(c1)O/C(=C\c1ccco1)C2=O`: the pIC50 is 4.27. For `CN(C)S(=O)(=O)c1cccc(NC(=S)N/N=C/c2ccc(O)c(O)c2O)c1`, the pIC50 was 4.63. On to `O=C1/C(=C/c2ccco2)SC(=S)N1C1CCS(=O)(=O)C1` (stereo unspecified), for which the pIC50 was 5.30. Regarding `Cc1cc(=O)c2c(O)c(O)ccc2o1`, the pIC50 is 4.32. Turning to `CC(C)(C)C1C/C(=C/c2ccco2)C(=O)/C(=C/c2ccco2)C1` (stereo unspecified), the pIC50 is 5.15. As for `O=C(C1CCCN1S(=O)(=O)c1cccc2cccnc12)N1CCN(c2ccccc2)CC1` (stereo unspecified), the pIC50 was 4.33. As for `COc1ccc(NC(=O)c2cccc(S(=O)(=O)Nc3ccc(Br)cc3)c2)cn1`, the pIC50 was 5.67.

Take `Cc1ccc2cc(C(c3nnnn3Cc3ccccc3)N3CCc4ccccc43)c(=O)[nH]c2c1` (stereo unspecified): the pIC50 was 4.33. Turning to `CNC[C@H](O)c1ccc(O)c(O)c1`, the pIC50 is 4.93. For `Cc1cc(C(=O)COC(=O)c2cc(O)c3ccccc3c2O)c(C)n1CC1CCCO1` (stereo unspecified), the pIC50 was 5.04.

`O=C1NC(=S)NC1=Cc1ccco1`: the pIC50 was 4.45.

In the case of `O=[N+]([O-])c1ccccc1S(=O)(=O)NC1CCCC1`, the pIC50 is 4.35.

With `COc1cc(NC(=O)CS(=O)(=O)c2ccc(C)cc2)cc(OC)c1OC`, the negative-log IC50 (pIC50) was 5.85.

As for `O=CN/C=C/c1cc(O)ccc1O`, the pIC50 is 4.96. For `O=C1CCC/C1=C/Nc1ccc2c(c1)OCO2` the value was 4.71; for `Brc1c(CSc2nnc(-c3ccco3)o2)nc2ccccn12`, 4.62. With `CC1(C)OC(=O)C(=C2CCCN2)C(=O)O1`, the pIC50 was 6.05. `COc1ccc(OC)c(N2C(=O)[C@@H]3C(c4ccccc4Cl)=NO[C@@H]3C2=O)c1`: the negative-log IC50 (pIC50) was 4.09. `O=C(N/N=C/c1cn(Cc2cccc(F)c2)c2ccccc12)c1cc(O)cc(O)c1`: the pIC50 was 4.83. On to `N=C1/C(=C/c2ccc(Br)o2)C(=O)N=C2SC(CC(=O)N3CCCC3)=NN12`, for which the pIC50 was 4.27.

For the origin of these results see PubChem BioAssay AID1117361 (Southern Research Institute, 2015).
